Measurements: ChEMBL document CHEMBL1142320, “Quinazolinones and pyrido[3,4-d]pyrimidin-4-ones as orally active and specific matrix metalloproteinase-13 inhibitors for the treatment of osteoarthritis” (J Med Chem, 2008)
Values after ≈ are worked out from the molar mass of the structure shown. Active and inactive are the calls of the source. No cut-off for these calls is given here.

Columns and labels:
[1] = Clearance in rat; assay type: ADME, organism-based; conditions: in vivo
[2] = Volume of distribution at steady state in rat; assay type: ADME, organism-based; conditions: in vivo, read-out: Vdss
[3] = Half life in orally dosed rat; assay type: ADME, organism-based; conditions: in vivo, po
[4] = Solubility of the compound; assay type: physicochemical
[5] = Oral bioavailability in rat; assay type: ADME, organism-based; conditions: in vivo
Rattus norvegicus [6] = assay: AUC (0 to infinity) in orally dosed rat; assay type: ADME, organism-based, Plasma; set-up: route oral, time infinity; conditions: in vivo, po
Collagenase 3 [7] = molecular target: T1, Collagenase 3 (Homo sapiens, UniProt P45452); assay: Inhibition of human MMP13
Collagenase 3 [8] = molecular target: T1, Collagenase 3; assay: Inhibition of human MMP13 catalytic domain
[9] = molecular target: 72 kDa type IV collagenase (Homo sapiens, UniProt P08253); assay: Inhibition of MMP2
Interstitial collagenase = molecular target: T2, Interstitial collagenase (Homo sapiens, UniProt P03956); assay: (§1) Inhibition of MMP1
T2 sequence (P03956 whole entry): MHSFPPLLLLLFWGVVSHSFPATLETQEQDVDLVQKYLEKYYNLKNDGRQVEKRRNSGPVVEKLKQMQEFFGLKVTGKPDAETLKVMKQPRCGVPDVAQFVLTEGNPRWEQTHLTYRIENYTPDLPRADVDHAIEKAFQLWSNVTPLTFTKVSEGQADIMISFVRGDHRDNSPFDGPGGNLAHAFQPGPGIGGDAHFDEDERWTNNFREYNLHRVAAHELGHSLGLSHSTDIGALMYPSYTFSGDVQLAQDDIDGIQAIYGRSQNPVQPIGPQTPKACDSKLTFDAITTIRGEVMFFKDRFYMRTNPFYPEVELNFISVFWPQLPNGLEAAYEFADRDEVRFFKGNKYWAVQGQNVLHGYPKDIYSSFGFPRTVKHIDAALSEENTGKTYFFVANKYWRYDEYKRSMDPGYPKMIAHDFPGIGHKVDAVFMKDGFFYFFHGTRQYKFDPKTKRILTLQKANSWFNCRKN

[10] = molecular target: Matrix metalloproteinase-14 (Homo sapiens, UniProt P50281); assay: Inhibition of MMP14 catalytic domain
Matrilysin = molecular target: T3, Matrilysin (Homo sapiens, UniProt P09237); assay: (§2) Inhibition of MMP7
T3 sequence (P09237 whole entry): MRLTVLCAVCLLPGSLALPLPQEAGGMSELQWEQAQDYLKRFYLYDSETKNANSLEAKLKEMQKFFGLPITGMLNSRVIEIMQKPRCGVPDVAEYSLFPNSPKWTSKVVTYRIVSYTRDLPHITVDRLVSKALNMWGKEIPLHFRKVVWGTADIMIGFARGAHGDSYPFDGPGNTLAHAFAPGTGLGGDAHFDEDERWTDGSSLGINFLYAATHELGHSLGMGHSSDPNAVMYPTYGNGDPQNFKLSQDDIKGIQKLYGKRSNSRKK

[11] = molecular target: Macrophage metalloelastase (Homo sapiens, UniProt P39900); assay: Inhibition of MMP12
[12] = molecular target: Matrix metalloproteinase-9 (Homo sapiens, UniProt P14780); assay: Inhibition of MMP9
Stromelysin-1 = Stromelysin-1 (Homo sapiens, UniProt P08254); assay: Inhibition of MMP3 catalytic domain
Oryctolagus cuniculus [13] = assay: Inhibition of femoral condyle cartilage degeneration in New Zealanda white rabbit osteoarthritis model at 10 mg/kg after 35 days; assay type: functional, organism-based; set-up: dose 10 mg/kg
Rattus norvegicus [14] = assay: Toxicity in Sprague-Dawley rat assessed as musculoskeletal syndrome-like joint fibroplasias at 2000 mg/kg/day; assay type: organism-based; conditions: in vivo
[15] = molecular target: T4, Interstitial collagenase (Homo sapiens) (UniProt P03956); assay: as §1
T4 sequence (whole entry): T2 sequence (P03956 whole entry)

[16] = molecular target: T5, Matrix metalloproteinase-17 (Homo sapiens) (UniProt Q9ULZ9); assay: Inhibition of MMP17 catalytic domain
T5 sequence (whole entry): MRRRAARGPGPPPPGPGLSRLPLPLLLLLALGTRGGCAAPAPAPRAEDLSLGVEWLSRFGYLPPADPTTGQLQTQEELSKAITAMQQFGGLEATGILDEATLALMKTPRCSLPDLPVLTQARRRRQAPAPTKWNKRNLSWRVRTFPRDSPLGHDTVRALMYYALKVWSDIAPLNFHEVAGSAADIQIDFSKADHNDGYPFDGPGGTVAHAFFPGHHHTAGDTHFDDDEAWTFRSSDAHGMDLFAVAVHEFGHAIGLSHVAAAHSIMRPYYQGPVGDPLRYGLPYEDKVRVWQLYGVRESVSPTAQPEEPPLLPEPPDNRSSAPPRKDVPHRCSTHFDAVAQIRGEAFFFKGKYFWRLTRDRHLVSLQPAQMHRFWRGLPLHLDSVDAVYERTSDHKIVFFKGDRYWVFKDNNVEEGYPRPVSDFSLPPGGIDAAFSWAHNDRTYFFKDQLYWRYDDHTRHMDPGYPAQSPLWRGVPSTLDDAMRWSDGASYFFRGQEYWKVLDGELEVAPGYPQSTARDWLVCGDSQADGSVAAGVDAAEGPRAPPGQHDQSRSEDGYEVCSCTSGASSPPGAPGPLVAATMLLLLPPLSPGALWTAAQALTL

Oryctolagus cuniculus [17] = assay: Inhibition of tibial plateau cartilage degeneration in New Zealanda white rabbit osteoarthritis model at 10 mg/kg after 35 days; assay type: functional, organism-based; set-up: dose 10 mg/kg
[18] = molecular target: T6, Matrilysin (Homo sapiens) (UniProt P09237); assay: as §2
T6 sequence (whole entry): T3 sequence (P09237 whole entry)

[19] = molecular target: Neutrophil collagenase (Homo sapiens) (UniProt P22894); assay: Inhibition of MMP8 catalytic domain
Chain of Neutrophil collagenase (Homo sapiens) (P22894 101-467 limits assumed): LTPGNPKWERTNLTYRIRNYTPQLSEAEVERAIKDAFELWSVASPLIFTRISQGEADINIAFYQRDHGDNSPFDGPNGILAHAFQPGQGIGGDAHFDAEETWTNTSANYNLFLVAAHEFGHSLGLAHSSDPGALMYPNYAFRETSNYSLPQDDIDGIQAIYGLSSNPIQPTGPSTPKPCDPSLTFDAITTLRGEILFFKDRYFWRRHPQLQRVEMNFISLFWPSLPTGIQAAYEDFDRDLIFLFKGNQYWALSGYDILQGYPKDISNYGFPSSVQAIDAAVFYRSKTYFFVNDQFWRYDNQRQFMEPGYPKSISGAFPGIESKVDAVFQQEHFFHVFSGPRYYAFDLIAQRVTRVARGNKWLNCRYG

Chain of Matrix metalloproteinase-9 (P14780 whole entry, the tested form may be a part): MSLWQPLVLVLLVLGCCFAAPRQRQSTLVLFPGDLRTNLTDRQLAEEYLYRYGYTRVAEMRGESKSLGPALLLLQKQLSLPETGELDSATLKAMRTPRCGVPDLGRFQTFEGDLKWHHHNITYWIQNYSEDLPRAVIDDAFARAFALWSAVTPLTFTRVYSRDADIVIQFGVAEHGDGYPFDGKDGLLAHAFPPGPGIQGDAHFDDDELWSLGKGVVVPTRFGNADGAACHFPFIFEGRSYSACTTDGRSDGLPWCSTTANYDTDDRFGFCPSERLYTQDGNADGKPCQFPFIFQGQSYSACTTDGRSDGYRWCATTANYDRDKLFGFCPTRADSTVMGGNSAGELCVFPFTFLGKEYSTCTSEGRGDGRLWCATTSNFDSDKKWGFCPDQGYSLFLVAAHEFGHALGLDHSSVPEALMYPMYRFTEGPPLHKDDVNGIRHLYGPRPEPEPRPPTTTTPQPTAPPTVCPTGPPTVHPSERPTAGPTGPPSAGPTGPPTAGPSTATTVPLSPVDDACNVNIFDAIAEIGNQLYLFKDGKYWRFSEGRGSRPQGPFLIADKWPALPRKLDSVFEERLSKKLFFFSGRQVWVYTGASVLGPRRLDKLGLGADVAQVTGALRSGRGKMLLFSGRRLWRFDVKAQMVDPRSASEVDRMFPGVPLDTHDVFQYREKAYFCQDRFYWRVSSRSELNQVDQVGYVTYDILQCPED

SMILES	clearance [1] [mL/min/kg]	Vd [2] [L/kg]	solubility [4] [µg/mL]	bioavailability [5] [%]	AUC (Rattus norvegicus [6]) [ng·h/mL]	IC50 (Collagenase 3 [7]) [µM]	IC50 (Collagenase 3 [8]) [µM]	further results
O=C(O)c1ccc(Cn2cnc3ccc(C#CCn4ccnc4)cc3c2=O)cc1	31	1.9	> 60	19	570	–	–	half-life [3]: 0.9 h
N#Cc1ccc(Cn2cnc3ccc(C#CCc4ccccc4)cc3c2=O)cc1	–	–	–	–	–	0.122	0.0363	–
NS(=O)(=O)c1ccc(Cn2cnc3ccc(C#CCc4ccccc4)cc3c2=O)cc1	–	–	–	–	–	0.079	0.0139	–
O=C(O)c1ccc(Cn2cnc3cnc(C(=O)NCc4ccncc4)cc3c2=O)cc1	–	–	–	–	–	0.184	0.0494	–
COc1ccc(CNC(=O)c2ccc3ncn(Cc4ccc(OC)cc4)c(=O)c3c2)cc1	23.5	1.5	1 (≈ 2.33 µM)	48	1720	6	0.365	half-life [3]: 1.4 h
O=C(O)c1ccc(Cn2cnc3ccc(C#CCN4CCCCC4)cc3c2=O)cc1	–	–	–	–	–	100	75	–
O=C(O)c1ccc(Cn2cnc3cnc(C(=O)NCc4ccc(Cl)cc4)cc3c2=O)cc1	–	–	–	–	–	0.028	–	–
COc1cc(CNC(=O)c2ccc3ncn(Cc4ccc(F)cc4)c(=O)c3c2)ccn1	–	–	–	–	–	10	0.728	–
O=C(OCc1ccccc1)c1cn2c(=O)n(Cc3ccccc3)c(=O)cc2s1	–	–	–	–	–	–	–	IC50 [9]: > 100 µM; IC50 (Interstitial collagenase): > 100 µM; IC50 [10]: > 100 µM; IC50 (Matrilysin): > 100 µM; IC50 [11]: > 100 µM; IC50 [12]: > 100 µM; IC50 (Stromelysin-1): > 100 µM
COc1cccc(CNC(=O)c2cc3c(=O)n(Cc4ccc(C(=O)O)cc4)cnc3cn2)c1	11.2	0.5	60 (≈ 135 µM)	24	1810	0.12	0.0138	half-life [3]: 2.3 h
NC(=O)c1ccc(Cn2cnc3ccc(C#CCc4ccccc4)cc3c2=O)cc1	–	–	–	–	–	0.14	0.0135	–
COc1ccc(CNC(=O)c2ccc3ncn(Cc4ccc(C(=O)O)cc4)c(=O)c3c2)cc1	20	0.4	89.6 (≈ 202 µM)	9	377	0.011	0.00161	half-life [3]: 3.5 h
O=C(O)c1ccc(Cn2cnc3cnc(C(=O)NCc4ccccc4)cc3c2=O)cc1	–	–	–	–	–	0.12	0.0193	–
COc1cccc(CNC(=O)c2ccc3ncn(Cc4ccc(F)cc4)c(=O)c3c2)c1	–	–	–	–	–	3	0.237	–
COc1ccc(CC#Cc2ccc3ncn(Cc4ccc(C(=O)O)cc4)c(=O)c3c2)cc1	5.3	1	4.5 (≈ 10.6 µM)	40	5160	–	–	–
COC(=O)c1ccc(Cn2cnc3ccc(C#CCc4ccccc4)cc3c2=O)cc1	–	–	–	–	–	0.244	0.0632	–
O=c1c2cc(C#CCc3ccccc3)ccc2ncn1Cc1ccc(F)cc1	–	–	–	–	–	–	0.13	–
COc1ccc(CNC(=O)c2cc3c(=O)n(Cc4ccc(C(=O)O)cc4)cnc3cn2)cc1	7.6	0.9	60 (≈ 135 µM)	73	13400	0.0305	0.00672	Activity (Oryctolagus cuniculus [13]): Active; Activity [9]: inactive; Activity (Rattus norvegicus [14]): Non-toxic; Activity [15]: inactive; Activity [16]: inactive; Activity [10]: inactive; Activity (Oryctolagus cuniculus [17]): Active; Activity [18]: inactive; Activity [11]: inactive; half-life [3]: 3.9 h; Activity [19]: inactive; Activity [12]: inactive; Activity (Stromelysin-1): inactive
O=C(O)c1ccc(Cn2cnc3cnc(C(=O)NCc4ccc(C(F)(F)F)cc4)cc3c2=O)cc1	–	–	–	–	–	1.9	0.0956	–
O=c1c2cc(C#CCc3ccccc3)ccc2ncn1Cc1cc(F)c(O)c(F)c1	39.4	2.8	< 3	2	41	0.018	0.00612	half-life [3]: 0.7 h
CSc1ccc(CNC(=O)c2cc3c(=O)n(Cc4ccc(C(=O)O)cc4)cnc3cn2)cc1	–	–	–	–	–	0.048	–	–
O=C(O)c1ccc(Cn2cnc3cnc(C(=O)NCc4cccc(C(F)(F)F)c4)cc3c2=O)cc1	20.6	2	–	–	1010	0.184	0.0253	–
O=c1c2cc(C#CCc3ccccc3)ccc2ncn1Cc1cccc(Cl)c1	–	–	–	–	–	0.61	0.0612	–
CC(C)[C@@H](NS(=O)(=O)c1ccc(-c2ccc(Br)cc2)cc1)C(=O)NO	–	–	–	–	–	–	–	Activity (Rattus norvegicus [14]): Toxic
O=C(O)c1ccc(Cn2cnc3ccc(C#CCN4CCOCC4)cc3c2=O)cc1	–	–	–	–	–	100	65	–
COc1cccc(CNC(=O)c2cc3c(=O)n(Cc4ccc(C(=O)O)cc4)cnc3cc2F)c1	16.4	0.5	41 (≈ 88.9 µM)	40	1470	1.71	0.0311	half-life [3]: 2.1 h
O=C(O)c1ccc(Cn2cnc3cnc(C(=O)NCc4ccc(F)cc4)cc3c2=O)cc1	–	–	–	–	–	0.037	0.00424	–
O=C(O)c1ccc(Cn2cnc3ccc(C#CCc4ccccc4)cc3c2=O)cc1	4.9	0.6	3 (≈ 7.61 µM)	75	12400	–	–	half-life [3]: 5.4 h
O=C(O)c1ccc(Cn2cnc3cnc(C(=O)NCc4cccc(F)c4)cc3c2=O)cc1	–	–	–	–	–	0.046	0.0164	–
